Experimental data from publication PMC3480206 (Future microbiology, 2012).
Converted amounts (≈) assume the structure as drawn.

Tests used:
EMB-resistant Mtb = conditions: cited from earlier work
[1] = tested on: Mycobacterium tuberculosis; test: Alamar MIC; format: cell-based; conditions: TAACF
[2] = tested on: Mycobacterium tuberculosis XDR strains; test: microbe, parasite or virus in culture; format: cell-based

## CC[C@@H](CO)NCCN[C@@H](CC)CO [EMB, ethambutol]
EMB-resistant Mtb
  MIC on EMB-resistant Mtb: 184 µg/mL (≈ 901 µM)

## CC(C)=CCC/C(C)=C/CNCCNC1C2CC3CC(C2)CC1C3 (centres unmarked) [SQ109, N-geranyl-N′-(2-adamantyl)ethane-1,2-diamine]
[1]; ATCC35822, INH-resistant, ATCC 35822, Alamar
  MIC: 0.78 µg/mL (≈ 2.36 µM)
[1]; ATCC35838, RIF-resistant, ATCC 35838, Alamar
  MIC: ≤ 0.39 µg/mL
[1]; CIP-resistant, Alamar
  MIC: ≤ 0.39 µg/mL
[1]; EMB-resistant, Alamar
  MIC: 0.78 µg/mL (≈ 2.36 µM)
[1]; KAN-resistant, Alamar
  MIC: 0.78 µg/mL (≈ 2.36 µM)
[2]; Mycobacterium tuberculosis
  MIC: 0.2 µg/mL (≈ 0.605 µM)
[2]; XDR, also EMB-resistant, strain 587W1, Microbroth
  MIC: 0.20 µg/mL (≈ 0.605 µM)
